Common to all, as to type: cell-based
The target in assay [1] is T1, Human GPR120 short form (Homo sapiens, UniProt Q5NUL3).
T1 construct: expressed in transfected cells
T1 sequence (Q5NUL3 1-361): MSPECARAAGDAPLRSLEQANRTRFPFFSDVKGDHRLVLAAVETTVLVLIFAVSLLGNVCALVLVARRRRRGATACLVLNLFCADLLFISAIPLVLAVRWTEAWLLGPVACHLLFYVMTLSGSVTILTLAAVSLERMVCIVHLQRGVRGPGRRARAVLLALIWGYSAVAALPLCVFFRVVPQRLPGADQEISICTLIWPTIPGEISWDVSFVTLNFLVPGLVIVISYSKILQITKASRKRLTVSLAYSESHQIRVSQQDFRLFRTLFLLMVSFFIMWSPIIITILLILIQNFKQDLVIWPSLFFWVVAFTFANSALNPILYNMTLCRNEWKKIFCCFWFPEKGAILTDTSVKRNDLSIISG
Nature of the assay: Human GPR120 calcium flux assay, Procedure Calcium B (4200 cells/well). In a few lines: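 Agonist EC50 came from a four-parameter fit of RFU (Fmax−Fmin) read over 300 s on FLIPR. Cells were HEK293 stably transfected with human GPR120 (NM_001195755.1) at 4200 per well, serum-starved 1 h and loaded with Fluo-4 NW dye with probenecid before ligand addition.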
For orientation: Calcium flux is commonly read through the fluorescence of an indicator in the cells.

Assay [2] has as its target T1, Human GPR120 short form. In words: Human GPR120 calcium flux assay, Procedure Calcium A (2500 cells/well). An excerpt:
Human GPR120 in Calcium Flux Assay
This in vitro assay serves to assess test compound agonist activity against the short splice variant (SVS with Accession number NM_001195755.1 confirmed by sequencing data) of the GPR120 receptor. The Human Short splice variant #2 (NM_001195755.1) is missing an in-frame coding exon compared to variant 1 (the Human Long splice variant NM_181745.3), resulting in a shorter isoform (GPR120-S) lacking a 16 aa protein segment compared to isoform GPR120-L. The assay platform utilizes HEK-293 cells stably transfected to express the Human GPR120 short form. These cells are first loaded with the Ca^+2 sensitive dye, Fluo-4 NW. Upon stimulation, intracellular released Ca^+2 can bind to the dye and alter its fluorescence intensity. This increase in fluorescence signal, and thus the flux in intracellular [Ca^2+], is detected and quantitated by fluorescence imaging using a FLIPR reader. The effect of the agonist is measured as a function of concentration and used to calculate an EC50 based upon a response curve.
In this procedure 2500 cells/well were employed.
A Human GPR120 clone (Genbank accession number NM_001195755.1) was placed into the pcDNA3.1 mammalian expression vector carrying the neomycin resistance gene. A stable mammalian cell was generated by placing the above clone into a HEK293 background. Clonal cells responding to long chain fatty acids had expression levels of GPR120 confirmed by RT-qPCR. Human HEK-GPR120 cells were cultured in Dulbecco's Modified Eagle's Medium (DMEM)/F12 medium supplemented with 10% fetal bovine serum (FBS), 1% L-Glutamine and 1% penicillin/streptomycin and 0.5 mg/ml G-418. Cells were split 2 times a week to keep the cells in the log-phase growth.
In preparation for the assay, HEK cells stably transfected with Human GPR120 (2.5K cells per well in 25 uL growth medium) were seeded into 384-well plates and then incubated overnight (37° C., 5% CO2). The next day, the media was changed to 20 μL assay buffer and the cell starved for 1 h at 37° C. The dye loading solution (2× dye) was prepared using 10 mL assay buffer, 100 μL of 250 mM probenecid, 1 bottle of Component A, and 20 μl of dye in DMSO. Twenty μL of the 2× dye loading buffer was then added to each well. The plates were incubated at 37° C. for 30 min, then at room temperature for an additional 15 minutes, before performing the assay on FLIPR.
The assay was performed on a FLIPR plate reader using the following parameters. Baseline was read for 10 seconds at 1 sec intervals. The program was set to transfer 10 μL of ligand from compound plate to cell plate after baseline reading. Aspiration was executed at: 10 μL/sec speed, 4.6 μL height, Dispensing was executed at: 30 μL/sec speed, 45 μL height. After compound addition, each well was read for 300 sec, with measurements collected at 1 sec intervals.
The kinetic data from the FLIPR was based upon a 5 minute window for data collection. The fluorescence of each sample well was used for individual calculations of a normalized RFU value, which was defined as maximum response minus the minimum response. The normalized fluorescence reading (RFU) was calculated as follows: RFU=Fmax−Fmin
The Fitting Equation was: Y=Bottom+(Top-Bottom)/(1+10^((Log EC50−X)*HillSlope)), where X is the log of the concentration and Y is the response.

For assay [3], the target named is T2, human GPR40 (Homo sapiens, UniProt O14842).
T2 construct: expressed in transfected cells
T2 sequence (O14842 whole entry): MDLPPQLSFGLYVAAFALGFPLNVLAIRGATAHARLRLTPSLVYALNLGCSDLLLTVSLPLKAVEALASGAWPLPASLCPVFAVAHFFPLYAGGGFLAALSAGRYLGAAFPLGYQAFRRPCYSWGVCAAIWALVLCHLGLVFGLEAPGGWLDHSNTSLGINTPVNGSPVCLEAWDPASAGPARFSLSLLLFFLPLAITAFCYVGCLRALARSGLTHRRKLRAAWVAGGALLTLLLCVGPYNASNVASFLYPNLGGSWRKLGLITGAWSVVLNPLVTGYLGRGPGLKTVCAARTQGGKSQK
In words: GPR40 calcium flux assay, human GPR40. As to conditions: HEK293 cells stably expressing GPR40; table does not say human or rat. In a few lines: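 Cells preincubated 1 h at 37° C. in HBSS, 20 mM HEPES, 0.1% BSA, then Fluo 8 calcium dye 30 min at 37° C. and 15 min at room temperature.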

Assay [4] has as its target T3, long form of human GPR120 (Homo sapiens, UniProt Q5NUL3).
T3 construct: host or cells: PathHunter CHO-K1 GPR120 β-Arrestin Cell Line
In words: Human GPR120 DiscoveRx PathHunter Beta-Arrestin assay, Procedure β-arrestin A. In outline: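 PathHunter CHO-K1 cells expressing long-form human GPR120 (3000/well) were seeded overnight. They were then preincubated 60 min in HBSS with 20 mM HEPES and 0.1% BSA, pH 7.4, and exposed to compound for 90 min at 37 °C. β-Arrestin recruitment was read as β-gal complementation luminescence. EC50 came from % activity versus positive control, Hill slope fixed at 1.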

As a reminder, the EC50 is the concentration at which the effect is half-maximal.

Values joined by “and” are separate entries in the source; they are usually repeats but may differ in a detail not shown here. Equal entries are not always repeated.

T3 sequence (Q5NUL3 1-377 isoform Q5NUL3-1): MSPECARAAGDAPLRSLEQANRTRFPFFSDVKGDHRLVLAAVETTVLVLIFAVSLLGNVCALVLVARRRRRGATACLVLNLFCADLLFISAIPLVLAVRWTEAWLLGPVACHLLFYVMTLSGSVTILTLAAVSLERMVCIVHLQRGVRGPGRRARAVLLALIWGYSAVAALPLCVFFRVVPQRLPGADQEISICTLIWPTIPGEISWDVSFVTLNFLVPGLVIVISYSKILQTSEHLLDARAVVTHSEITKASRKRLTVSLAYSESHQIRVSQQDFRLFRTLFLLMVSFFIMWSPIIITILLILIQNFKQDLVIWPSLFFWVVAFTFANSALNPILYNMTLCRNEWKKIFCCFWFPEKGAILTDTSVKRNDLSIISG
T3 sequence (P32121 whole entry partner): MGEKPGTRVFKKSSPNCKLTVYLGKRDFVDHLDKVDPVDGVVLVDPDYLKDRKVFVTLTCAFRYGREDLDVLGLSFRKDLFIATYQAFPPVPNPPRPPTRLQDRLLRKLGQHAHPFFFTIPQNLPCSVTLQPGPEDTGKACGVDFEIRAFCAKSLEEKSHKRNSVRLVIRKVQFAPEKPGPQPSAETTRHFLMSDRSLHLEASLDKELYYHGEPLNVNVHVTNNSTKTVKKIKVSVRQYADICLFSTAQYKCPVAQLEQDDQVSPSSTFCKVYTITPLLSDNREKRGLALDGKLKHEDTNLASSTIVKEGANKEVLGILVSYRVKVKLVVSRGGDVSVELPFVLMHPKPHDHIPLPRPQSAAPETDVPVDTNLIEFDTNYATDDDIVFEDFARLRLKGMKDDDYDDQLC

On to `Cc1c(CCC(=O)O)ccc(OCC2=C(c3ccncc3)CCC2)c1C` [Compound 139, 3-[2,3-dimethyl-4-[[2-(4-pyridyl)cyclopenten-1-yl]methoxy]phenyl]Propanoic Acid], for which the results for the EC50 in assay [1] and in assay [2] were 2.47 µM and 2.45 µM, respectively.
In the case of `Cc1c(CCC(=O)O)ccc(OCC2=C(c3ccccc3Cl)CCCC2)c1C` [Compound 464, 3-[4-[[2-(2-chlorophenyl)cyclohexen-1-yl]methoxy]-2,3-dimethyl-phenyl]Propanoic Acid], the results for the EC50 in assay [1] and in assay [2] were 1.25 µM and 1.34 µM, respectively.
Take `Cc1c(CCC(=O)O)ccc(OCC2=C(c3ccsc3)CCC2)c1C` [Compound 22, 3-(2,3-dimethyl-4-((2-(thiophen-3-yl)cyclopent-1-en-1-yl)methoxy)phenyl)Propanoic Acid]: the EC50 in assay [3] was over 5 µM; in assay [2], over 20 µM.
As to `Cc1c(CCC(=O)O)ccc(OCC2=C(c3ccc(OC(F)(F)F)cc3)CCCC2)c1C` [Compound 466, 3-[2,3-dimethyl-4-[[2-[4-(trifluoromethoxy)phenyl]cyclohexen-1-yl]methoxy]phenyl]Propanoic Acid], the EC50 in assay [1] worked out at 1.45 µM; in assay [2] it was 4.45 µM.
Turning to `Cc1c(CCC(=O)O)ccc(OCC2=C(c3ccc([S+](C)[O-])cc3)CCC2)c1C` (centres unmarked) [Compound 120, 3-[2,3-dimethyl-4-[[2-(4-methylsulfinylphenyl)cyclopenten-1-yl]methoxy]phenyl]Propanoic Acid], in assay [2], the concentration for a half-maximal effect (EC50) is over 5 µM.
Take `Cc1c(CCC(=O)O)ccc(OCC2=C(c3ccc(S(C)(=O)=O)cc3)CCC2)c1C` [Compound 74, 3-[2,3-dimethyl-4-[[2-(4-methylsulfonylphenyl)cyclopenten-1-yl]methoxy]phenyl]Propanoic Acid]: the EC50 in assay [3] was over 10 µM; in assay [2] it was over 20 µM.
Turning to `CCOc1ccc(C2=C(COc3ccc(CCC(=O)O)c(C)c3C)CCC2)cc1` [Compound 151, 3-[4-[[2-(4-ethoxyphenyl)cyclopenten-1-yl]methoxy]-2,3-dimethyl-phenyl]Propanoic Acid], the EC50 in assay [3] and in assay [2] was over 5 µM in each case.
As to `CC(=O)Nc1ccc(C2=C(COc3ccc(CCC(=O)O)c(C)c3C)CCC2)cc1` [Compound 51, 3-[4-[[2-(4-acetamidophenyl)cyclopenten-1-yl]methoxy]-2,3-dimethyl-phenyl]Propanoic Acid], the concentration for a half-maximal effect (EC50) in assay [2] was over 20 µM.
On to `CCCc1ccc(C2=C(COc3ccc(CCC(=O)O)c(C)c3C)CCC2)cc1` [Compound 140, 3-[2,3-dimethyl-4-[[2-(4-propylphenyl)cyclopenten-1-yl]methoxy]phenyl]Propanoic Acid], for which the EC50 in assay [3] and in assay [2] was over 5 µM each time.
Take `O=C(O)CCc1ccc(OCC2=C(c3ccc(Cl)cc3)CCCC2)cc1` [Compound 517, 3-[4-[[2-(4-chlorophenyl)cyclohexen-1-yl]methoxy]phenyl]Propanoic Acid]: the EC50 in assay [3] and in assay [2] was over 5 µM in each case.
Turning to `O=C(O)CCc1cc(F)c(OCC2=C(c3ccc(F)cc3F)CC(F)(F)C2)c(F)c1` [Compound 216, 3-[4-[[2-(2,4-difluorophenyl)-4,4-difluoro-cyclopenten-1-yl]methoxy]-3,5-difluoro-phenyl]Propanoic Acid], the EC50 in assay [4] was 0.169 µM; in assay [1] it was 0.075 µM; in assay [3] it was over 5 µM.
As for `CCOc1ccc(C2=C(COc3ccc(CCC(=O)O)c(C)c3C)CCCC2)cc1` [Compound 461, 3-[4-[[2-(4-ethoxyphenyl)cyclohexen-1-yl]methoxy]-2,3-dimethyl-phenyl]Propanoic Acid], the results for the EC50 in assay [1] and in assay [2] were 1.36 µM and 2.26 µM, respectively.
Regarding `Cc1cc(CCC(=O)O)ccc1OCC1=C(c2cncs2)CCC(F)(F)C1` [Compound 548, 3-[4-[(5,5-difluoro-2-thiazol-5-yl-cyclohexen-1-yl)methoxy]-3-methyl-phenyl]Propanoic Acid], the EC50 in assay [4] amounted to 1.34 µM; in assay [1], 0.5 µM; in assay [3] it was 3.49 µM.
With `Cc1cc(CCC(=O)O)ccc1OCC1=C(c2ccc(C#N)s2)CCC(F)(F)C1` [Compound 573, 3-[4-[[2-(5-cyano-2-thienyl)-5,5-difluoro-cyclohexen-1-yl]methoxy]-3-methyl-phenyl]Propanoic Acid], the EC50 in assay [4] was determined as 0.643 µM; in assay [1], 0.444 µM; in assay [3] it was 4.5 µM.
Regarding `O=C(O)CCc1ccc(OCC2=C(c3ccc(F)cc3)CC(F)(F)C2)c(F)c1` [Compound 214, 3-[4-[[4,4-difluoro-2-(4-fluorophenyl)cyclopenten-1-yl]methoxy]-3-fluoro-phenyl]Propanoic Acid], the EC50 in assay [4] is 0.084 µM; in assay [1], 0.078 µM; in assay [3] it was over 5 µM.
For the compound `Cc1c(CCC(=O)O)ccc(OCC2=C(c3ccc(F)cc3)CCC(F)(F)C2)c1C` [Compound 497, 3-[4-[[5,5-difluoro-2-(4-fluorophenyl)cyclohexen-1-yl]methoxy]-2,3-dimethyl-phenyl]Propanoic Acid], the EC50 in assay [4] was 0.122 µM; in assay [1], 0.075 µM; in assay [3] it was over 5 µM.
Take `Cc1ccc(C2=C(COc3ccc(CCC(=O)O)c(C)c3C)CC(F)(F)CC2)cc1F` [Compound 529, 3-[4-[[5,5-difluoro-2-(3-fluoro-4-methyl-phenyl)cyclohexen-1-yl]methoxy]-2,3-dimethyl-phenyl]Propanoic Acid]: the values for the 50% effective concentration (EC50) in assay [4], in assay [1] and in assay [3] were 0.136 µM, 0.156 µM and over 5 µM, respectively.
For `O=C(O)CCc1ccc(OCC2=C(c3ccc(Cl)cc3)CCC2)cc1C(F)(F)F` [Compound 39, 3-[4-[[2-(4-chlorophenyl)cyclopenten-1-yl]methoxy]-2-(trifluoromethyl)phenyl]Propanoic Acid], the half-maximal effective concentration (EC50) in assay [4] was 0.491 µM; in assay [1], 0.215 µM; in assay [3], 0.131 µM and 0.182 µM.
On to `Cc1cc(CCC(=O)O)ccc1OCC1=C(c2ccc(Cl)s2)CCC(F)(F)C1` [Compound 542, 3-[4-[[2-(5-chloro-2-thienyl)-5,5-difluoro-cyclohexen-1-yl]methoxy]-3-methyl-phenyl]Propanoic Acid], for which the EC50 in assay [4] stood at 0.182 µM; in assay [1], 0.094 µM; in assay [3], 2.86 µM.
Consider `O=C(O)CCc1ccc(OCC2=C(c3ccc(F)cc3)CCC2)cc1` [Compound 43, 3-[4-[[2-(4-fluorophenyl)cyclopenten-1-yl]methoxy]phenyl]Propanoic Acid], for which the EC50 in assay [4] was found to be 0.208 µM; in assay [1], 0.207 µM; in assay [3], 3.03 µM.

The record behind these values is patent US11230526B1, “Cylcoalkenyl derivatives useful as agonists of the GPR120 and/or GPR40 receptors” (Janssen Pharmaceutica NV, priority 2018, dated 2022).
